The record followed here is patent US7544703B2, “Cyclic compound having 4-pyridylalkylthio group having substituted or unsubstituted amino group introduced therein” (Santen Pharmaceutical Co., Ltd., priority 2004, dated 2009).

Structures are written as SMILES. Structures can show the parent of a compound that is named as a salt.

The test system of the first assay is HUVEC (normal human umbilical vein endothelial cells). The assay can be described thus: VEGF-induced HUVEC proliferation: cell proliferation inhibitory action test.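 Further: each well holds 100 µL cell suspension before compound addition.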 It is filed as cell-based. The conditions noted are these: 72 h, 5 μL of 20 μg/mL test compound solution per well, WST-8 absorbance at 450 nm three days after VEGF addition, read-out: Cell proliferation inhibition rate (%). On the procedure: A cell proliferation inhibitory action test of the compounds of the present invention was performed using a VEGF-induced HUVEC proliferation evaluation system (HUVEC stands for normal human umbilical vein endothelial cells), which is one of the widely-used methods of evaluating in vitro angiogenesis inhibitory effects of drugs. As one of the widely-used methods of evaluating angiogenesis inhibitory effects of drugs, a cell proliferation inhibitory action test using a VEGF-induced HUVEC proliferation reaction evaluation system has been reported in Cancer Res., 59, 99-106 (1999). According to the method described in the above-mentioned document, a cell proliferation inhibitory action test of the compounds of the present invention was performed, the cell proliferation inhibition rate was calculated, and the angiogenesis inhibitory effect of each of the compounds of the present invention was evaluated using the obtained rate as an index. Each test compound was dissolved in dimethyl sulfoxide (hereinafter abbreviated as DMSO), and the obtained solution was diluted with a commercially available phosphoric acid buffer solution (hereinafter abbreviated as PBS), whereby a 20 μg/mL test compound solution was prepared. HUVEC was suspended in a 0.5% fetal bovine serum (hereinafter abbreviated as FBS)-containing F12K medium, whereby a 2×10^4 cells/mL HUVEC suspension was prepared. VEGF was dissolved in 0.1% bovine serum albumin-containing PBS, and the obtained solution was diluted with the 0.5% FBS-containing F12K medium, whereby a 400 ng/mL VEGF solution was prepared. • 1) The HUVEC suspension was inoculated in an amount of 100 μL into each well of a 96-well plate coated with type I collagen (2×10^3 cells per well). • 2) One day after the inoculation, the test compound solution was added in an amount of 5 μL per well. • 3) One hour after the addition of the test compound solution, the VEGF solution was added in an amount of 5 μL per well. • 4) Three days after the addition of the VEGF solution, WST-8 assay kit (Dojin Chemical Co., Ltd.) was added in an amount of 10 μL per well. • 5) After 3 hours, the above-mentioned plate was attached to an absorptiometer (Multilabel Counter ARVO), and an absorbance at 450 nm of each well suspension (hereinafter referred to as test compound suspension) was measured. • 6) A test was carried out in the same manner as in the above 1) to 5) except that 1.0% DMSO was used instead of the test compound solution. The result was used as a control. Incubation was carried out under conditions of 37° C., 5% carbon dioxide and […] in an incubator throughout the above-mentioned test steps. The cell proliferation inhibition rate (%), which was used as an index of an angiogenesis inhibitory effect, was calculated according to the following calculation equation. Cell proliferation inhibition rate (%)=100−{(Absorbance of test compound suspension−A)/(absorbance of control−A)}×100 (Calculation Equation) A: Absorbance of only cell suspension (cell+medium) (Test Results and Discussion)
For `CC(C)c1cccc(NC(=O)c2cccnc2SCc2ccnc(N)c2)c1` [Compound 3-2, 2-(2-Aminopyridin-4-ylmethylthio)-N-(3-isopropylphenyl)pyridine-3-carboxamide monohydrochloride], the inhibition at 20 µg/mL (stock) came out at 97%.

In the case of `CC(=O)Nc1cc(CSc2ccsc2C(=O)Nc2cc(C)cc(C)c2)ccn1` [Compound 4-56, 3-(2-Acetylaminopyridin-4-ylmethylthio)-N-(3,5-dimethylphenyl)thiophene-2-carboxamide], the inhibition at 20 µg/mL (stock) turned out to be 99%.

In the case of `Cc1cc(C)cc(NC(=O)c2ccccc2SCc2ccnc(N)c2)c1` [Compound 3-20, 2-(2-Aminopyridin-4-ylmethylthio)-N-(3,5-dimethylphenyl)benzamide monohydrochloride], the inhibition at 20 µg/mL (stock) was found to be 100%.

`CCCCCNc1cc(CSc2ncccc2C(=O)Nc2cc(C)cc(C)c2)ccn1` [Compound 1-20, N-(3,5-Dimethylphenyl)-2-(2-n-pentylaminopyridin-4-ylmethylthio)pyridine-3-carboxamide]: the inhibition at 20 µg/mL (stock) stood at 100%.

As to `CC(C)(C)OC(=O)Nc1cc(CSc2ncccc2C(=O)Nc2ccc3cn[nH]c3c2)ccn1` [Compound 2-6, 2-(2-tert-Butoxycarbonylaminopyridin-4-ylmethylthio)-N-(1H-indazol-6-yl)pyridine-3-carboxamide], the inhibition at 20 µg/mL (stock) was found to be 100%.

In the case of `CNC(=O)Nc1cc(CSc2ncccc2C(=O)Nc2ccc(OC(F)(F)F)cc2)ccn1` [Compound 9-2, 2-[2-(N′-Methylureido)pyridin-4-ylmethylthio]-N-(4-trifluoromethoxyphenyl)pyridine-3-carboxamide], the inhibition at 20 µg/mL (stock) was determined as 100%.

For the compound `Cc1cc(C)cc(NC(=O)c2cccnc2SCc2ccnc(N3CCOCC3)c2)c1` [Compound 1-4, N-(3,5-Dimethylphenyl)-2-(2-morpholinopyridin-4-ylmethylthio)pyridine-3-carboxamide], the inhibition at 20 µg/mL (stock) came out at 100%.

As for `CCCNC(=O)Nc1cc(CSc2ncccc2C(=O)Nc2cc(C)cc(C)c2)ccn1` [Compound 5-1, N-(3,5-Dimethylphenyl)-2-[2-(N′-n-propylureido)pyridin-4-ylmethylthio]pyridine-3-carboxamide], the inhibition at 20 µg/mL (stock) came out at 100%.

As for `Cc1cc(C)cc(NC(=O)c2cccnc2SCc2ccnc(NC(=O)NC(C)(C)C)c2)c1` [Compound 5-2, 2-[2-(N′-tert-Butylureido)pyridin-4-ylmethylthio]-N-(3,5-dimethylphenyl)pyridine-3-carboxamide], the inhibition at 20 µg/mL (stock) was 100%.

For the compound `Cc1cc(C)cc(NC(=O)c2cccnc2SCc2ccnc(Nc3ccccc3)c2)c1` [Compound 8-1, N-(3,5-Dimethylphenyl)-2-(2-phenylaminopyridin-4-ylmethylthio)pyridine-3-carboxamide], the inhibition at 20 µg/mL (stock) is 100%.

On to `CNC(=O)Nc1cc(CSc2ncccc2C(=O)Nc2ccc(OC(F)F)cc2)ccn1` [Compound 9-4, N-(4-Difluoromethoxyphenyl)-2-[2-(N′-methylureido)pyridin-4-ylmethylthio]pyridine-3-carboxamide], for which the inhibition at 20 µg/mL (stock) amounted to 100%.

For `Nc1cc(CSc2ncccc2C(=O)Nc2ccc3c(c2)CCC3)ccn1` [Compound 3-3, 2-(2-Aminopyridin-4-ylmethylthio)-N-(indan-5-yl)pyridine-3-carboxamide monohydrochloride], the inhibition at 20 µg/mL (stock) amounted to 100%.

Regarding `CC(=O)N(C)c1cc(CSc2ncccc2C(=O)Nc2cc(C)cc(C)c2)ccn1` [Compound 4-12, 2-[2-(N-Acetyl-N-methylamino)pyridin-4-ylmethylthio]-N-(3,5-dimethylphenyl)pyridine-3-carboxamide], the inhibition at 20 µg/mL (stock) turned out to be 100%.

`Cc1cc(C)cc(NC(=O)c2cccnc2SCc2ccnc(NS(=O)(=O)C(F)(F)F)c2)c1` [Compound 4-6, N-(3,5-Dimethylphenyl)-2-(2-trifluoromethanesulfonylaminopyridin-4-ylmethylthio)pyridine-3-carboxamide]: the inhibition at 20 µg/mL (stock) is 100%.

For `Nc1cc(CSc2ccccc2C(=O)Nc2ccc(Cl)cc2)ccn1` [Compound 3-21, 2-(2-Aminopyridin-4-ylmethylthio)-N-(4-chlorophenyl)benzamide monohydrochloride], the inhibition at 20 µg/mL (stock) was 100%.

For the compound `CC(=O)Nc1cc(CSc2ccccc2C(=O)Nc2ccc(Cl)cc2)ccn1` [Compound 4-42, 2-(2-Acetylaminopyridin-4-ylmethylthio)-N-(4-chlorophenyl)benzamide], the inhibition at 20 µg/mL (stock) is 100%.

Turning to `CNC(=O)Nc1cc(CSc2ncccc2C(=O)Nc2ccc(Cl)cc2)ccn1` [Compound 9-3, N-(4-Chlorophenyl)-2-[2-(N′-methylureido)pyridin-4-ylmethylthio]pyridine-3-carboxamide], the inhibition at 20 µg/mL (stock) stood at 100%.

As for `CC(=O)Nc1cc(CSc2ccsc2C(=O)Nc2ccc(Cl)cc2)ccn1` [Compound 4-57, 3-(2-Acetylaminopyridin-4-ylmethylthio)-N-(4-chlorophenyl)thiophene-2-carboxamide], the inhibition at 20 µg/mL (stock) came out at 100%.

For `Cc1cc(C)cc(NC(=O)c2sccc2SCc2ccnc(N)c2)c1` [Compound 3-28, 3-(2-Aminopyridin-4-ylmethylthio)-N-(3,5-dimethylphenyl)thiophene-2-carboxamide], the inhibition at 20 µg/mL (stock) is 100%.

For `CC(=O)N1CCN(c2cc(CSc3ncccc3C(=O)Nc3ccc4c(c3)CCC4)ccn2)CC1` [Compound 1-11, 2-[2-(4-Acetylpiperazin-1-yl)pyridin-4-ylmethylthio]-N-(indan-5-yl)-pyridine-3-carboxamide], the inhibition at 20 µg/mL (stock) is 96%.

The subject of a further assay is B16 cells. The assay can be described thus: Tumor growth inhibitory action test using cancer models in mice (B16 cells). It is filed as in vivo. The conditions noted are these: C57BL/6N mouse, B16 cells intradermal; 100 mg/kg/day oral once a day, day 0 to day 10; average of 9 mice per group; read-out: Tumor tissue weight inhibition rate (%). On the procedure: A tumor growth inhibitory action test of the compounds of the present invention was performed using a tumor growth model in mice, which is one of the widely-used methods of evaluating in vivo anticancer effects of drugs.
As one of the widely-used methods of evaluating anticancer effects of drugs, a tumor growth inhibitory action test using cancer models in mice has been reported in Cancer Res., 59, 5209-5218 (1999). According to the method described in the above-mentioned document, a tumor growth inhibitory action test of the compounds of the present invention was performed, the tumor tissue weight inhibition rate was calculated, and the anticancer effect of each of the compounds of the present invention was evaluated using the obtained rate as an index.
A 1% aqueous methyl cellulose solution was added to each test compound to suspend it with a sonicator, whereby a 10 mg/mL test compound suspension was prepared.
Physiological saline was added to B16 cells, whereby a 3.3×10^7 cells/mL B16 cell suspension was prepared.
• 1) The back of each mouse (female, 6 weeks of age, C57BL/6N mouse) was depilated using a depilatory under Nembutal anesthesia. • 2) Several days after the depilation, the B16 cell suspension (300 μL) was injected intradermally into the back of the mouse under Nembutal anesthesia. • 3) From the B16 cell injection day (i.e. on day 0) to day 10, the test compound suspension (100 mg/kg/day) was orally administered once a day consecutively. • 4) Ten days after the injection of the cells, the mouse was euthanized with CO2 gas. • 5) A tumor tissue was enucleated from the mouse, and the weight of the tumor tissue was measured with an electronic balance. • 6) A test was performed in the same manner as in 1) to 5) except that the 1% aqueous methyl cellulose solution was used instead of the test compound suspension, and the result was used as a control. (Calculation of Tumor Tissue Weight Inhibition Rate)
A tumor tissue weight inhibition rate (the average of 9 mice per group), which was used as an index of anticancer effect, was calculated according to the following calculation equation. Tumor tissue weight inhibition rate (%)=100−(Mx/Mo)×100 (Calculation Equation) Mo: Tumor tissue weight of control group Mx: Tumor tissue weight of test compound solution administration group (Test Results and Discussion)
`CC(=O)Nc1cc(CSc2ncccc2C(=O)Nc2cccc(Cl)c2)ccn1` [Compound 4-16, 2-(2-Acetylaminopyridin-4-ylmethylthio)-N-(3-chlorophenyl)pyridine-3-carboxamide]: the inhibition in vivo at 100 mg/kg/day is 74%.

Consider `CC(C)c1cccc(NC(=O)c2cccnc2SCc2ccnc(N)c2)c1` [Compound 3-2, 2-(2-Aminopyridin-4-ylmethylthio)-N-(3-isopropylphenyl)pyridine-3-carboxamide monohydrochloride], for which the inhibition in vivo at 100 mg/kg/day was determined as 61%.

Turning to `CC(=O)Nc1cc(CSc2ccsc2C(=O)Nc2cc(C)cc(C)c2)ccn1` [Compound 4-56, 3-(2-Acetylaminopyridin-4-ylmethylthio)-N-(3,5-dimethylphenyl)thiophene-2-carboxamide], the inhibition in vivo at 100 mg/kg/day was determined as 42%.

Turning to `CC(=O)Nc1cc(CSc2ncccc2C(=O)Nc2ccc(OC(F)(F)F)c(Cl)c2)ccn1` [Compound 4-14, 2-(2-Acetylaminopyridin-4-ylmethylthio)-N-(3-chloro-4-trifluoromethoxyphenyl)pyridine-3-carboxamide], the inhibition in vivo at 100 mg/kg/day was 44%.

`Cc1cc(C)cc(NC(=O)c2ccccc2SCc2ccnc(N)c2)c1` [Compound 3-20, 2-(2-Aminopyridin-4-ylmethylthio)-N-(3,5-dimethylphenyl)benzamide monohydrochloride]: the inhibition in vivo at 100 mg/kg/day stood at 42%.

In the case of `Cc1cc(C)cc(NC(=O)c2cccnc2SCc2ccnc(N3CCOCC3)c2)c1` [Compound 1-4, N-(3,5-Dimethylphenyl)-2-(2-morpholinopyridin-4-ylmethylthio)pyridine-3-carboxamide], the inhibition in vivo at 100 mg/kg/day was determined as 68%.

For `CC(=O)Nc1cc(CSc2ccccc2C(=O)Nc2cc(C)cc(C)c2)ccn1` [Compound 4-43, 2-(2-Acetylaminopyridin-4-ylmethylthio)-N-(3,5-dimethylphenyl)benzamide], the inhibition in vivo at 100 mg/kg/day was determined as 47%.
